Test results published in US11207291B2, “Antimicrobial compositions comprising cannabinoids and methods of using the same” (Graphium Biosciences, Inc., priority 2017, dated 2021).
Converted amounts (≈) assume the structure as drawn. Like-named read-outs stand apart in the source and are kept apart here.

Legend:
[1] = test system: Staphylococcus aureus (MSSA); assay: Broth microdilution MIC, aerobic bacteria (Example 1); type: cell-based; settings: Staphylococcus aureus, ATCC 29213 / MSSA, isolate MMX 100 (ATCC 29213), read-out: MIC
Pseudomonas aeruginosa = assay: as above; type: cell-based
[2] = test system: evaluated yeast and fungal isolates; assay: Broth microdilution MIC, text summary (Example 1); type: cell-based
Bacteroides fragilis [3] = assay: Broth microdilution MIC, anaerobic bacteria (Example 4); type: cell-based; settings: ATCC25285, isolate MMX 123 (ATCC 25285)
Acinetobacter baumannii [4] = assay: Broth microdilution MIC, aerobic bacteria (Example 1); type: cell-based
gram-positive aerobes = assay: Broth microdilution MIC, text summary (Example 1); type: cell-based
[5] = Analysis of intestinal contents, plasma and brains after oral CBD or CBD-glycosides (Example 3); type: in vivo; settings: mouse, oral gavage; 2 hours; data not shown
Protocol: In order to investigate the metabolism and decoupling of CBD-glycosides in the large intestine, an aqueous solution of a mixture of CBD-glycosides was administered to a mouse by oral gavage. As a control, a solution of CBD in cremophor, ethanol, and saline was administered to a second mouse. The animals were each sacrificed at 2 hours. Following termination and tissue harvest, the intestinal contents were then extracted and analyzed by C18 reverse phase HPLC. The mice employed in this example were eight week old male Swiss mice fasted for 12 hours prior to administration of the solutions.
The resulting extracts were analyzed by LCMS performed using a Shimadzu LC-MS 2010 EV. Electrospray ionization (ESI) was performed in negative mode. The column was a Silia Chrom XDB C18 5 um, 150 A, 4.6×50 mm. The method was 12 min 5 to 95 H2O:ACN. Acetic acid and formic acid were used as sample additives during analysis, and the injection volume was 20 μl.

[6] = test system: Staphylococcus aureus (MRSA); assay: microbe, parasite or virus in culture; type: cell-based
[7] = test system: Enterococcus faecalis (VRE); assay: microbe, parasite or virus in culture; type: cell-based
[8] = test system: Klebsiella pneumoniae (KPC-2); type: cell-based; settings: Example 1 summary of findings; Klebsiella
Bifidobacterium longum [9] = assay: Broth microdilution MIC, anaerobic bacteria (Example 4); type: cell-based; settings: isolate MMX 3968
Escherichia coli [10] = assay: Broth microdilution MIC, aerobic bacteria (Example 4); type: cell-based; settings: ATCC25922
C. difficile = assay: MIC/MBC testing (Example 5); type: cell-based; settings: for MBC:MIC: ratios of 1-4 are indicative of bactericidal activity; for MBC / MIC: Clostridioides difficile
Lactobacillus jensenii = assay: Broth microdilution MIC, anaerobic bacteria (Example 1); type: cell-based; settings: Lactobacillus jensenii
Bifidobacterium longum [11] = assay: as above; type: cell-based; settings: Bifidobacterium longum
Bacteroides fragilis [12] = assay: as above; type: cell-based; settings: Bacteroides fragilis
Lactobacillus crispatus = assay: as above; type: cell-based; settings: Lactobacillus crispatus
[13] = Compound precipitation in uninoculated solubility controls (Example 4); type: physicochemical
Protocol: Un-inoculated solubility control plates for each test media and drug were incubated in parallel with test plates and observed for evidence of drug precipitation. MICs were read where visible growth of the organism was inhibited.

B. longum MMX 3968 = assay: MIC/MBC testing (Example 5); type: cell-based
[14] = test system: Enterococcus faecalis (VSE); assay: Broth microdilution MIC, aerobic bacteria (Example 1); type: cell-based; settings: Enterococcus faecalis, ATCC29212, isolate MMX 101 (ATCC 29212), read-out: MIC
E. coli ATCC 25922 = assay: MIC/MBC testing (Example 5); type: cell-based; settings: Escherichia coli, ATCC25922
Streptococcus pyogenes = assay: Broth microdilution MIC, aerobic bacteria (Example 4); type: cell-based
gram-negative aerobes = assay: Broth microdilution MIC, text summary (Example 1); type: cell-based
Anaerobic Bacteria = assay: Broth microdilution MIC, text summary (Example 1); type: cell-based
Candida parapsilosis [15] = assay: Broth microdilution MIC, yeast and fungi (Example 1); type: cell-based; settings: Lodderomyces parapsilosis, ATCC22019, Example 1, isolate MMX 2323 (ATCC 22019)
Escherichia coli [16] = assay: Broth microdilution MIC, aerobic bacteria (Example 1); type: cell-based; settings: Escherichia coli, ATCC25922, isolate MMX 102 (ATCC 25922), read-out: MIC
Acinetobacter baumannii [17] = assay: Broth microdilution MIC, aerobic bacteria (Example 4); type: cell-based
Aspergillus fumigatus = assay: Broth microdilution MIC, yeast and fungi (Example 1); type: cell-based; settings: Aspergillus fumigatus, isolate MMX 5280 (ATCC MYA-3626)
Candida parapsilosis [18] = assay: Broth microdilution MIC, fungi (Example 4); type: cell-based; settings: Lodderomyces parapsilosis
[19] = ATCC700057, Example 5, ATCC 700057
[20] = Example 1 summary of findings, read-out: inhibits the growth (IC50 values)
[21] = Bifidobacterium longum, MMX3968

In the case of `C=C(C)[C@@H]1CCC(C)=C[C@H]1c1c(O)cc(CCCCC)cc1O` [CBD, cannabidiol], the MIC [1] is reported as 2 µg/mL (≈ 6.36 µM), the “effect on the gram-negative pathogen” value (Pseudomonas aeruginosa; Example 1 summary of findings, Pseudomonas) is reported as “did not have any effect” and the MIC (Pseudomonas aeruginosa; Pseudomonas aeruginosa, Example 1, isolate MMX 1380, read-out: MIC) is reported as > 256 µg/mL. The “activity against yeast and fungal isolates” value [2] was “Neither the cannabinoid prodrugs or CBD were active”, the MIC (Bacteroides fragilis [3]) was > 128 µg/mL and the MIC (Acinetobacter baumannii [4]; Acinetobacter baumannii) was > 256 µg/mL. For the same compound, the “effect on the gram-negative pathogen” value (Acinetobacter baumannii [4]; Example 1 summary of findings, Acinetobacter) was “did not have any effect”, the “activity against gram-positive aerobic bacteria” value (gram-positive aerobes) was “active” and the “presence of CBD in plasma and brains (HPLC)” value [5] was “CBD was only present in the control animal that received CBD aglycone”. The MIC [6] was 2 µg/mL (≈ 6.36 µM), the MIC [7] was 2 µg/mL (≈ 6.36 µM) and the “effect on the gram-negative pathogen” value [8] was “did not have any effect”. The MIC (Bifidobacterium longum [9]) was 64 µg/mL (≈ 204 µM), the MIC (Escherichia coli [10]) was > 128 µg/mL and the “MBC:MIC” value (C. difficile; ATCC 700057) was 2. For the same compound, the MBC (C. difficile; [19]) was 32 µg/mL (≈ 102 µM), the MIC (C. difficile; [19]) was 16 µg/mL (≈ 50.9 µM) and the MBC (C. difficile; Example 5, MMX 8330) was 32 µg/mL (≈ 102 µM). It also gave an MIC (C. difficile; Example 5, MMX 8330) of 32 µg/mL (≈ 102 µM), an MBC (C. difficile; Example 5, MMX 8333) of 32 µg/mL (≈ 102 µM) and an MIC (C. difficile; Example 5, MMX 8333) of 16 µg/mL (≈ 50.9 µM). The “MBC:MIC” value (C. difficile; MMX 8330) was 1, the “MBC:MIC” value (C. difficile; MMX 8333) was 2 and the MIC (Lactobacillus jensenii; Example 1, isolate MMX 4149, read-out: MIC) was 64 µg/mL (≈ 204 µM). For the same compound, the IC50 (Lactobacillus jensenii; [20]) was 64 µg/mL (≈ 204 µM), the MIC (Bifidobacterium longum [11]; Example 1, isolate MMX 3968, read-out: MIC) was 32 µg/mL (≈ 102 µM) and the IC50 (Bifidobacterium longum [11]; [20]) was 32 µg/mL (≈ 102 µM). It also gave an MIC (Bacteroides fragilis [12]; ATCC5285) of 32 µg/mL (≈ 102 µM), an IC50 (Bacteroides fragilis [12]; Example 1 summary of findings, read-out: inhibits the growth (IC50)) of 32 µg/mL (≈ 102 µM) and an MIC (Lactobacillus crispatus; Example 1, isolate MMX 4147, read-out: MIC) of 2 µg/mL (≈ 6.36 µM). The IC50 (Lactobacillus crispatus; [20]) was 2 µg/mL (≈ 6.36 µM), the “precipitation observed (type)” value ([13]; Brucella Broth) was “none” and the “precipitation observed (type)” value ([13]; MHB II) was “none”. For the same compound, the “precipitation observed (type)” value ([13]; MHB II with Blood) was “none”, the “precipitation observed (type)” value ([13]; RPMI) was “none” and the MBC (B. longum MMX 3968; [21]) was 64 µg/mL (≈ 204 µM). The MIC (B. longum MMX 3968; [21]) was 16 µg/mL (≈ 50.9 µM), the “MBC:MIC” value (B. longum MMX 3968; ratios of 1-4 are indicative of bactericidal activity) was 4 and the MIC [14] was 2 µg/mL (≈ 6.36 µM). The MIC (E. coli ATCC 25922) was > 256 µg/mL, the MIC (Streptococcus pyogenes) was 32 µg/mL (≈ 102 µM) and the “activity against gram-negative aerobic bacteria” value (gram-negative aerobes) was “inactive”. For the same compound, the “MICs (range over anaerobic bacteria)” value (Anaerobic Bacteria) was 2 to 64 µg/mL, the MIC (Candida parapsilosis [15]; 24 hr, read-out: MIC at 24 hr) was > 256 µg/mL and the MIC (Candida parapsilosis [15]; 48 hr, read-out: MIC at 48 hr) was > 256 µg/mL. For the same compound, the MIC (Escherichia coli [16]) was > 256 µg/mL, the MIC (Acinetobacter baumannii [17]) was > 128 µg/mL and the MIC (Aspergillus fumigatus; 24 hr, read-out: MIC at 24 hr) was > 256 µg/mL. For the same compound, the MIC (Aspergillus fumigatus; 48 hr, read-out: MIC at 48 hr) was > 256 µg/mL, the MIC (Candida parapsilosis [18]; ATCC22019, 24 h, read-out: MIC at 24 hr) was > 128 µg/mL and the MIC (Candida parapsilosis [18]; ATCC22019, Example 4, 48 hr, isolate MMX 2323 (ATCC 22019), read-out: MIC at 48 hr) was > 128 µg/mL.
